Measured values from patent EP3501490A1, “COMPOSITION FOR EXTERNAL USE THAT INCLUDES PTEROSTILBENE GLYCOSIDE” (Tomoike Industrial (H.K.) Limited, priority 2016, dated 2018).

What was measured:
type IV collagen gene = assay: Type IV collagen mRNA expression in human skin cells by microarray method (Experimental Example 1); assay type: cell-based; conditions: 120 h, cultured for 5 days, hTERT-immortalized human skin cells, read-out: increase of the expression amount of type IV collagen gene compared to the negative control experiment
Experimental: Human skin cells were immortalized by introducing the hTERT gene and acclimated in a predetermined medium, Prigrow III (APB). Thereafter, the pterostilbene monoglucoside (50 µM) was added to the conditioned medium and cultured for 5 days in a 5% CO2 environment at 37°C.
RNA was collected from the cells after culturing, and changes in the amount of type IV collagen mRNA expression were analyzed by microarray method. […] A negative control experiment was also performed in which the pterostilbene monoglucoside was not added to the conditioned medium.

type IV collagen = assay: Type IV collagen protein expression in three-dimensional skin model by western blotting and densitometry (Experimental Examples 2 and 5); assay type: cell-based; conditions: Homo sapiens, 168 h; 25 µM and 100 µM final concentrations, 7 days; at most (maximum), concentration dependent; α-tubulin internal standard; read-out: increase of the amount of type IV collagen expression in the three-dimensional skin model compared to the control
Experimental: The three-dimensional skin model produced following the protocol of the kit was acclimated in the medium supplied with the kit.
The cells after culturing were collected, lysates thereof were subjected to western blotting using an anti-human collagen antibody (COL4A3BP; Abcam), and the amount of type IV collagen protein expression was analyzed. Further, western blotting using an anti-α-tubulin antibody as the internal standard was also performed, and the obtained image data was subjected to densitometry analysis.
These solutions were added to three-dimensional skin models and cultured for 7 days. The lysates of cells after culturing were subjected to western blotting using an anti-human collagen antibody, and the amounts of type IV collagen expression in the cells were analyzed. As a negative control (Ctrl), an experiment was performed in which a DMSO solution was added alone to the three-dimensional skin model.
Further, western blotting using an anti-α-tubulin antibody as the internal standard was also performed, and the obtained image data was subjected to densitometry analysis.

[1] = biological target: T1, Tyrosinase (Cat. No. T3824, SIGMA) (Agaricus bisporus, UniProt C7FF04); assay: In vitro tyrosinase inhibition experiment (Experimental Example 3); assay type: biochemical; conditions: fold more excellent than the aglycone pterostilbene, based on IC50 values of Fig. 3
T1 construct: purchased SIGMA T3824
Experimental: The tyrosinase inhibitory effect of pterostilbene monoglucoside was analyzed (IC50 values were measured) based on a generally known method (e.g., Expert Opin Ther Pat. 2016; 26(3): 347-62). Tyrosinase (Cat. No. T3824, SIGMA) was used as tyrosinase. Further, pterostilbene (produced by Tokyo Chemical Industry Co., Ltd.; A in the figure), the pterostilbene monoglucoside above (B in the figure), and arbutin as a positive control (C in the figure) were used.

T1 sequence (C7FF04 2-392 limits assumed): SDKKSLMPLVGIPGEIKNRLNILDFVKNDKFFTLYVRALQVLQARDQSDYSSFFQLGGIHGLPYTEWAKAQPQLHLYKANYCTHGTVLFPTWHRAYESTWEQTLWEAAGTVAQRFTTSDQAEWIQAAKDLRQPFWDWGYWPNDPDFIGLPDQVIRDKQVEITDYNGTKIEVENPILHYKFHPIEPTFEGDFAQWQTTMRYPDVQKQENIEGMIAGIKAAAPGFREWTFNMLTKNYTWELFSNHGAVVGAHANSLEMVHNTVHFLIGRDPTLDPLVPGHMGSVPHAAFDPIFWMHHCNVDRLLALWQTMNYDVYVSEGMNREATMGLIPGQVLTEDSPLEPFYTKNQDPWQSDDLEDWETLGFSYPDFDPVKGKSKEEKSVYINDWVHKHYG

## COc1cc(/C=C/c2ccc(OC3O[C@H](CO)[C@@H](O)[C@H](O)[C@H]3O)cc2)cc(OC)c1 (stereo partly drawn) [pterostilbene monoglucoside]
Type IV collagen gene
  fold induction at 50 µM: ~1.35
Type IV collagen
  maximal fold induction: ~2.5
[1]
  tyrosinase inhibitory effect relative to pterostilbene (comparison of IC50 values): ~5.5 times
